{
  "source": "patent US6159733A",
  "about": "“Method for photoinactivating malignant cells” (priority 1996, dated 2000)",
  "key": {"[1]": {"tested_on": "WEHI-3 cells", "test": "Photoinactivation of cell line, colony forming assay", "format": "cell-based, murine", "experimental": "Cell lines and culture conditions. WEHI-3 (murine myelocytic leukemia), L1210 (murine lymphocytic leukemia) and P815 (murine mastocytoma) cells were grown in RPMI 1640 (GibcoBRL, Grand Island, N.Y.) supplemented with 10% FBS. BC3A (murine leukemia) cells were grown in RPMI 1640 supplemented with 10 μM β-mercaptoethanol and 10% FBS; ABE-8.1/2 (murine pre-B lymphoma) cells were grown in DMEM (GibcoBRL)--10 μM β-mercaptoethanol--10% FBS. All cell lines were obtained from the American Type Culture Collection (Rockville, Md.) and were cultured at 37° C. in a humidified 5% CO2 -incubator. Prior to incubation with Pc 4, the cell lines were centrifuged and resuspended in phosphate buffered saline (PBS)--10% FBS, pH 7.4.\n(§1) Photosensitization. Aliquots of a 1.87 mM Pc 4 (kindly provided by Dr. M. E. Kenney) stock solution in dimethyl sulfoxide were kept at -80° C. in autoclaved brown glass vials. Immediately prior to the photosensitization, Pc4 was thawed and diluted in dimethyl formamide to yield a 10 μM working solution. […] Pc 4 was used at 15 nM throughout the experiments.\n(§2) BM and cell line samples, were incubated with 15 nM Pc 4 for two hours at 37° C. at cell concentrations of 1.5×10^7 cells/mL. Aliquots of 1.5 mL were transferred to 24-well plates; separate plates were used for each sample.\n(§3) In a second set of experiments, the cells were incubated with 15 nM Pc 4 at cell concentrations of 1.5×10^6 cells/mL. Prior to photoirradiation, the samples were centrifuged and the supernatants were aspirated and set aside. The cell concentrations were adjusted to 1.5×10^7 cells/mL by adding back an appropriate volume of the Pc 4 containing aspirates.\n(§4) Photoinactivation. The light source used was a filtered xenon short arc lamp (Versa-Light, Model UV-R6G, Medic Lightech, Ltd., Haifa, Israel). It was used to deliver red light (λ 600-700 nm) to the sensitized cells. After a 20 minute warm up period of the instrument, the distance from the light source to the bottom of the 24-well plate was adjusted to obtain a fluence rate of 26.6 mW/cm^2, as measured with a radiometer (Model IL 1350, International Light, Newburyport, Mass.). Samples were placed under the light source and were stirred during the irradiations. Before and after the irradiations, samples were kept in the dark.\nCell line samples were plated (in triplicate) in a semi-solid medium which consisted of DMEM--20% vol/vol serum (2/3 horse serum, 1/3 FBS)--3 mM glutamine--60 μM β-mercaptoethanol--0.3% wt/vol agar. The samples were incubated at 37° C. in a humidified 5% CO2 -incubator, and colonies consisting of more than 50 cells were counted after nine days.\nStatistics. All assays were performed in triplicate unless mentioned otherwise. Data are expressed as mean values±standard error of the mean (SEM). Survival data are presented as surviving fractions relative to the surviving fractions of the untreated controls. The significance of the differences between experimental values was assessed by means of the Student's t-test."}, "[2]": {"tested_on": "CFU-GM", "settings": "15 nM Pc 4, 5×10^6 cells/mL, 8 J/cm^2; cited from earlier work"}, "[3]": {"test": "Photosensitivity of committed BM progenitors, colony forming assay", "format": "cell-based, murine", "settings": "mouse", "from_the_text": "(§5) Animals. C57B1/6 (Ly-5.2) and B6SJ-cd45 ^b pep 3^b /BOY J (Ly-5.1), were obtained from The Jackson Laboratories (Bar Harbor, Me.) and were maintained in the animal facility of the New York Blood Center. After gamma-irradiation, the animals were housed in microisolator cages and provided with autoclaved food and autoclaved acidified water (pH=3) ad libitum. Preparation of bone marrow cell suspensions--Ly-5.1 mice were used as the source of donor BM. Mice (8-10 weeks old) were killed and the BM was harvested by flushing the femoral shafts with Hank's balanced salt solution (HBSS), pH 7.4. The cell suspensions were centrifuged, washed once and the cells were finally resuspended in HBSS--10% vol/vol fetal bovine serum (FBS, Gemini Bioproducts Inc., Calabasas, Calif.).\nas §1, §2, §3, §4\n(§6) Colony forming assays. BM samples were plated (in duplicate) in a semi-solid medium that contained IMDM (GibcoBRL), supplemented with 30% vol/vol FBS, 0.15% wt/vol deionized bovine serum albumin (Migliaccio, G., et al. Brit. J. Haematol. 67:129 (1987)) (Sigma, St. Louis, Mo.), 0.8% wt/vol methylcellulose, 75 μM β-mercaptoethanol (Sigma), antibiotics (100 U/mL penicillin, […], […] fungizone, GibcoBRL) and a cocktail of growth factors including: murine interleukin-3 (1% vol/vol COS-cell-derived supernatant, gift from Dr. K. Kaushansky), murine granulocyte-macrophage colony stimulating factor (1% vol/vol COS-cell-derived supernatant, gift from Dr. K. Kaushansky), recombinant human interleukin-11 (16 U/mL, gift from Genetics Institute, Cambridge, Mass.), recombinant rat stem cell factor (100 ng/mL), granulocyte colony stimulating factor (10 ng/mL), recombinant human erythropoietin (20 ng/mL, gifts from Amgen, Thousand Oaks, Calif.), and 800 U/mL murine thrombopoietin (800 U/mL, gift from Zymonetics, Seattle, Wash.). The samples were incubated at 37° C. in a humidified 5% CO2 -incubator and megakaryocyte colony forming units (CFU-Mk) were counted after 5 days. Blast forming units-erythroid (BFU-E), CFU-GM and mixed colonies (CFU-Mix) were counted after seven days.\n(§7) Statistics. All assays were performed in triplicate unless mentioned otherwise. Data are expressed as mean values±standard error of the mean (SEM). Survival data are presented as surviving fractions relative to the surviving fractions of the untreated controls. […]"}, "[4]": {"tested_on": "committed BM progenitor cells", "test": "Photosensitivity of committed BM progenitors, colony forming assay", "format": "cell-based, murine", "from_the_text": "as §5, §1, §2, §3, §4, §6, §7"}, "[5]": {"tested_on": "CFU-GM", "test": "Photosensitivity of committed BM progenitors, colony forming assay", "format": "cell-based, murine", "settings": "15 nM, 1.5×10^6 cells/mL", "from_the_text": "as §5, §1, §2, §3, §4, §6, §7"}, "[6]": {"tested_on": "CFU-Mk", "test": "Photosensitivity of committed BM progenitors, colony forming assay", "format": "cell-based, murine", "settings": "15 nM, 1.5×10^6 cells/mL", "from_the_text": "as §5, §1, §2, §3, §4, §6, §7"}, "[7]": {"tested_on": "BFU-E", "test": "Photosensitivity of committed BM progenitors, colony forming assay", "format": "cell-based, murine", "settings": "15 nM, 1.5×10^6 cells/mL", "from_the_text": "as §5, §1, §2, §3, §4, §6, §7"}, "[8]": {"tested_on": "CFU-Mix", "test": "Photosensitivity of committed BM progenitors, colony forming assay", "format": "cell-based, murine", "settings": "15 nM, 1.5×10^6 cells/mL", "from_the_text": "as §5, §1, §2, §3, §4, §6, §7"}, "[9]": {"tested_on": "BFU-E", "settings": "15 nM Pc 4, 5×10^6 cells/mL, 8 J/cm^2; cited from earlier work"}, "[10]": {"tested_on": "viruses", "settings": "blood products; cited from earlier work"}},
  "data": [
    {"smiles": "CN(C)CCC[Si](C)(C)O[Si]1(O)n2c3c4ccccc4c2N=C2N=C(N=c4c5ccccc5c(n41)=NC1=NC(=N3)c3ccccc31)c1ccccc12", "note": "(stereo not drawn) [Pc 4, hydroxysiloxy-dimethylpropyl-N-dimethyl silicon phthalocyanine]", "values": [
      {"measurement": "fluence for photoinactivation to below the detection levels", "setting": "[1]; 15 nM, 1.5×10^6 cells/mL", "result": 12, "unit": "J/cm^2"},
      {"measurement": "selectivity of photoinactivation towards the cell line", "setting": "[1]; 1.5×10^6 cells/mL", "result": "~4", "unit": "log10"},
      {"measurement": "selective photoinactivation", "setting": "[1]; 1.5×10^7 cells/mL, 18 J/cm^2", "result": 5, "unit": "log10"},
      {"measurement": "viability at 0.015 µM", "setting": "[1]; Mus musculus, WEHI-3, light or radiation study, read-out: surviving fraction", "result": 0.00038, "unit": "%"},
      {"measurement": "surviving fraction of human cells", "setting": "[2]", "result": 1.0},
      {"measurement": "cytotoxicity at 0.015 µM", "setting": "[3]; bone marrow cfu-gm, 15 nM Pc 4, murine BM, read-out: losses of CFU-GM on incubation", "result": "0 to 15", "unit": "%"},
      {"measurement": "viability at 0.015 µM", "setting": "[3]; bone marrow progenitors, 15 nM, 1.5×10^7 cells/mL, 18 J/cm^2, read-out: surviving fraction (colony forming ability relative to untreated controls)", "result": "< 0.3", "unit": "%"},
      {"measurement": "photosensitivity of all committed progenitor subsets", "setting": "[4]; 15 nM, 1.5×10^7 cells/mL, 3 J/cm^2", "result": "resistant"},
      {"measurement": "loss of committed progenitor cells", "setting": "[4]; Pc 4, 18 J/cm^2", "result": "2-3 logs"},
      {"measurement": "fluence for photoinactivation to below the detection levels", "setting": "[5]", "result": 6, "unit": "J/cm^2"},
      {"measurement": "fluence for photoinactivation to below the detection levels", "setting": "[6]", "result": 6, "unit": "J/cm^2"},
      {"measurement": "fluence for photoinactivation to below the detection levels", "setting": "[7]", "result": 3, "unit": "J/cm^2"},
      {"measurement": "fluence for photoinactivation to below the detection levels", "setting": "[8]", "result": 3, "unit": "J/cm^2"},
      {"measurement": "surviving fraction of human cells", "setting": "[9]", "result": 0.9},
      {"measurement": "photoinactivation of viruses", "setting": "[10]", "result": "effectively photoinactivate"}
    ]}
  ]
}
